Test results from ChEMBL document CHEMBL4689842, “EUbOPEN Chemogenomics Library wave 1” (2021).

What was measured:
Assay type in all cases: toxicity, cell-based
HEK-293T = test: Incucyte cell viability with HEK293T; conditions: human, 10 µM, compound concentration 10 uM
U2OS = test: Incucyte cell viability with U2OS; conditions: human, 10 µM, compound concentration 10 uM
Fibroblast = test: Incucyte cell viability with human fibroblast; conditions: 10 µM, compound concentration 10 uM
[1] = 0 h, replicate number 1, timepoint 0 hours
[2] = 6 h, replicate number 1, timepoint 6 hours
[3] = 12 h, replicate number 1, timepoint 12 hours
[4] = 18 h, replicate number 1, timepoint 18 hours
[5] = 24 h, replicate number 1, timepoint 24 hours
[6] = 6 h, replicate number 2, timepoint 6 hours
[7] = 12 h, replicate number 2, timepoint 12 hours
[8] = 18 h, replicate number 2, timepoint 18 hours
[9] = 0 h, replicate number 2, timepoint 0 hours
[10] = 24 h, replicate number 2, timepoint 24 hours
Note: filed as whole numbers so only -1 and 0 and 1 occur.

Row | SMILES | Growth Rate (HEK-293T; [1]) | Growth Rate (HEK-293T; [2]) | Growth Rate (HEK-293T; [3]) | Growth Rate (HEK-293T; [4]) | Growth Rate (HEK-293T; [5]) | Growth Rate (U2OS; [1]) | Growth Rate (U2OS; [6]) | Growth Rate (U2OS; [3]) | Growth Rate (U2OS; [4]) | Growth Rate (U2OS; [5]) | Growth Rate (Fibroblast; [1]) | Growth Rate (Fibroblast; [2]) | Growth Rate (Fibroblast; [6]) | Growth Rate (Fibroblast; [3]) | Growth Rate (Fibroblast; [7]) | Growth Rate (Fibroblast; [4]) | Growth Rate (Fibroblast; [8]) | Growth Rate (Fibroblast; [5]) | Growth Rate (HEK-293T; [9]) | Growth Rate (HEK-293T; [7]) | also measured
1 | CC1(C)CCC(C)(C)c2cc(C(=O)Nc3ccc(C(=O)O)cc3)ccc21 | 0 | 1 | 1 | 1 | 1 | 0 | 1 | 1 | 1 | 1 | 0 | 1 | 0 | 1 | 0 | 1 | 0 | 1 |  |  | 
2 | O=C(N[C@@H](C1CC1)C(F)(F)F)c1cc(-c2cnn3cc(-c4ccc(F)cc4)cnc23)cs1 | 0 |  |  |  |  |  |  | 0 | 0 | 1 | 0 | 1 |  | 1 |  | 1 |  | 1 | 1 | 1 | Growth Rate (HEK-293T; [6]): 1; Growth Rate (HEK-293T; [10]): 1; Growth Rate (U2OS; [9]): 1; Growth Rate (U2OS; [2]): 0; Growth Rate (U2OS; [10]): 0
3 | CN(C)C(=O)/C(C#N)=C/c1ccc(-c2nc3cnc4c(ccn4C)c3n2C2CCCCC2)o1 |  | 0 | 0 | 0 | 0 | 0 | 1 | 0 | 0 | 1 |  | 0 | 1 | 0 |  | 0 |  | 0 |  |  | Growth Rate (U2OS; [2]): 0; Growth Rate (U2OS; [7]): 1; Growth Rate (U2OS; [8]): 1
4 | C[C@H](c1ccc(F)cc1)N(Cc1cccc(C(=O)O)c1)C(=O)c1cnc2ccccc2c1 [PF-05105679] | 1 | 0 | 1 | 1 | 1 |  | 1 | 0 | 0 | 0 | 0 |  | 0 | 1 |  | 1 |  | 1 | 0 | 0 | Growth Rate (HEK-293T; [6]): 1; Growth Rate (HEK-293T; [10]): 0; Growth Rate (U2OS; [9]): 0; Growth Rate (U2OS; [2]): 0; Growth Rate (U2OS; [7]): 1; Growth Rate (U2OS; [8]): 1; Growth Rate (U2OS; [10]): 1
5 | CC#CC(=O)N1CCC[C@H]1c1nc(-c2ccc(C(=O)Nc3ccccn3)cc2)c2c(N)nccn12 [ACALABRUTINIB] | 1 | 0 | 0 | 0 | 0 | 0 |  | 0 | 0 | 1 | 0 | 1 | 0 | 0 | 1 | 0 |  | 1 |  |  | Growth Rate (HEK-293T; [8]): 1; Growth Rate (U2OS; [9]): 1; Growth Rate (U2OS; [2]): 0; Growth Rate (U2OS; [10]): 0; Growth Rate (Fibroblast; [10]): 0
6 | CSc1cccnc1N1CCN(Cc2nc3ccccc3[nH]2)CC1 [A-769] | 1 | 0 | 0 | 0 | 0 |  |  | 0 | 0 | 1 | 0 | 0 | 1 | 0 | 1 | 0 |  | 0 | 0 |  | Growth Rate (U2OS; [2]): 0; Growth Rate (U2OS; [8]): 1; Growth Rate (Fibroblast; [9]): 1
7 | Cl.Cl.Cl.c1ccc(N2CCN(Cc3nc4ccccc4[nH]3)CC2)nc1 | 1 | 1 | 1 | 1 | 0 | 0 | 0 | 1 | 1 | 1 | 0 |  |  |  | 1 |  | 1 | 1 | 0 | 0 | 
8 | O=C(O)C1CN(Cc2ccc(-c3nc4cc(Cc5ccccc5F)ccc4s3)c(F)c2)C1 | 1 | 0 | 0 | 0 | 0 | 0 | 0 | 1 | 0 | 1 | 0 | 1 | 0 | 1 |  | 1 |  | 1 | 0 |  | Growth Rate (U2OS; [7]): 0; Growth Rate (U2OS; [8]): 1; Growth Rate (U2OS; [10]): 0
9 | O=C(Nc1ccc(Oc2ccc(F)cc2)cc1)N1CCc2ncccc2[C@H]1c1ccc(F)cc1 [BAY-897] | 0 | 0 | 0 | 0 | 0 | 0 |  | 1 | 1 | 1 | 0 | 1 | 0 | 1 |  | 1 |  | 1 |  |  | 
10 | COc1cc(C(=O)NS(=O)(=O)c2ccccc2C)ccc1Cc1cn(C)c2ccc(NC(=O)OC3CCCC3)cc12 [ZAFIRLUKAST] | 0 | 1 | 1 | 1 | 1 | 0 | 1 | 1 | 1 | 1 | 0 | 1 | 0 | 0 |  | 1 | 0 | 0 |  | 0 | Growth Rate (HEK-293T; [8]): 0; Growth Rate (HEK-293T; [10]): 0
11 | Cc1csc(NC(=O)c2cc(F)cc(Oc3cncnc3)c2)n1 | 0 | 1 | 0 | 1 | 1 |  | 0 | 0 | 0 | 0 | 0 | 0 |  | 0 |  | 1 | 0 | 1 |  | 1 | Growth Rate (HEK-293T; [8]): 0; Growth Rate (HEK-293T; [10]): 0; Growth Rate (U2OS; [2]): 1; Growth Rate (U2OS; [8]): 1; Growth Rate (U2OS; [10]): 1; Growth Rate (Fibroblast; [10]): 0
12 | CCOc1cn(-c2ccc(F)cc2C)nc1C(=O)Nc1ccc(Oc2ccnc3cc(OC)c(OC)cc23)c(F)c1 | 0 | 1 |  |  | 1 |  |  | 1 | 1 | 1 | 1 | 0 | 1 | 0 | 1 | 0 | 1 | 0 |  | 0 | Growth Rate (HEK-293T; [6]): 0; Growth Rate (HEK-293T; [8]): 1; Growth Rate (HEK-293T; [10]): 0; Growth Rate (Fibroblast; [10]): 1
13 | CCNC(=O)c1cc2c(N3CCOC[C@@H]3C)ccnc2n1C | 1 | 0 | 0 | 1 | 0 | 0 | 0 | 0 | 0 | 0 | 0 | 1 | 0 | 1 | 0 | 1 | 0 | 1 | 0 |  | Growth Rate (HEK-293T; [10]): 1; Growth Rate (U2OS; [9]): 1; Growth Rate (U2OS; [7]): 1; Growth Rate (U2OS; [8]): 1; Growth Rate (U2OS; [10]): 1
14 | C[C@]1(C(=O)N(CCCC(=O)O)Cc2cccc(Cl)c2)CCN1C(=O)c1csc2ccccc12 [GLPG-0974] | 1 | 1 | 1 | 1 | 1 | 0 | 1 | 1 | 1 | 1 | 0 | 0 |  | 0 |  | 1 |  | 1 | 0 | 0 | Growth Rate (HEK-293T; [6]): 0; Growth Rate (HEK-293T; [8]): 0; Growth Rate (HEK-293T; [10]): 0; Growth Rate (Fibroblast; [9]): 1
15 | CN1C[C@H](Nc2cnn(C)c(=O)c2Br)C[C@H](c2ccccc2)C1 | 1 | 0 | 0 | 0 | 0 |  |  | 1 | 1 | 1 | 0 | 0 |  | 1 | 0 | 1 | 0 | 1 | 0 |  | Growth Rate (U2OS; [9]): 0; Growth Rate (U2OS; [2]): 0; Growth Rate (Fibroblast; [10]): 0
